# Reference: US7482339B2, “2-Naphthylimino-1,3-thiazine derivative” (Shionogi and Co., Ltd., priority 2003, dated 2009)
# Like-named read-outs stand apart in the source and are kept apart here.
# Key:
# human CB1R [1] = target: T1, human CB1R (Homo sapiens, UniProt P21554); assay: CBR-mediated suppression of forskolin-stimulated cAMP synthesis, CHO cells expressing CB1R; assay type: cell-based; details: 4 μM forskolin, read-out: Inhibition of cAMP synthesis IC50 CB1
# T1 construct: expressed in transfected cells; host or cells: CHO cells (crude membrane fractions)
# Method: (§1) The CHO cells expressing human CB1R or CB2R were incubated with test compounds for 15 min. After the incubation, 4 μM forskolin (Sigma) was added and the cells were incubated for 20 min. The reaction was stopped by the addition of 1N HCl and the amount of cAMP in the cell supernatant was measured using an Cyclic AMP kit (CIS bio international) according to the manufacture's protocol. The cAMP amount increased by forskolin compared to that in the absence of forskolin was defined as 100%, and the IC50 value of each test compound was determined as the concentration at which 50% of the forskolin-stimulated cAMP synthesis was inhibited.
# human CB2R [2] = target: T2, human CB2R (Homo sapiens, UniProt P34972); assay: Human CB receptor binding inhibition ([3H]CP55940), CB2R; details: membranes of CB2R-expressing CHO cells, 0.5 nM [3H]CP55940, 2 hr at 25° C.; read-out: CB receptor binding inhibition Ki CB2
# T2 construct: expressed in transfected cells; host or cells: CHO cells (crude membrane fractions)
# Method: (§2) The crude membrane fractions were then prepared from the CB1R or CB2R-expressing CHO cells. Receptor binding assay was performed by incubating the membranes with each test compound and 38,000 dpm [^3H]CP55940 (at a final concentration of 0.5 nM: PerkinElmer Life & Analytical Sciences) in the assay buffer (50 mM Tris-HCl, […], 3 mM MgCl2, pH 7.4) containing 0.5% bovine serum albumin (BSA) for 2 hr at 25° C. The incubation mixture was filtered through 1% polyethylenimine (PEI)-treated GF/C glass filter and washed with 50 mM Tris-HCl (pH 7.4) containing 0.1% BSA. The radioactivity was then counted with a liquid scintillation counter. Nonspecific binding was determined in the presence of 10 μM WIN55212-2 (a CBR agonist described in the patent U.S. Pat. No. 508,122, Sigma), and the specific binding was calculated by subtracting the nonspecific binding from the total binding. The IC50 value for each test compound was determined as the concentration at which 50 % of the specific binding was inhibited. As a consequence of these studies, the Ki values of each test compound were determined from the IC50 value and the Kd vale of [^3H]CP55940.
# human CB1R [3] = target: T1, human CB1R; assay: Human CB receptor binding inhibition ([3H]CP55940), CB1R; details: membranes of CB1R-expressing CHO cells, 0.5 nM [3H]CP55940, 2 hr at 25° C.; read-out: CB receptor binding inhibition Ki CB1
# Method: as §2
# [4] = test system: formalin-induced hyperalgesia in ICR mice; assay: Inhibitory effect against formalin-induced hyperalgesia in ICR mice; assay type: in vivo; details: Mus musculus, male ICR mice, oral administration 2 h prior to formalin
# Method: The inhibitory effects of the compounds of the present invention against formalin-induced hyperalgesia were examined in male ICR mice (5 W). Test compounds were dissolved in sesami oil and applied orally 2 h prior to the subcutaneous formalin injection (2% 20 μL) into the right hind paw. In this experiment, observation period was set to 30 min and divided into two parts, the first 5 minutes immediately after the formalin injection (first phase) and 10 to 30 min minutes after the formalin injection (second phase). The strength for pain sensation was evaluated by the total time for licking and biting behavior. The inhibitory effect of the test compounds on such behavior was evaluated and the ED50 value was calculated.
# [5] = test system: compound 48/80-induced pruritus in ICR strain mice; assay: Inhibitory effect on compound 48/80-induced pruritus in ICR strain mice; assay type: in vivo; details: Mus musculus, po, 0.5 h; female ICR strain mice, orally administered once, scratching counted for 30 min; read-out: anti-pruritic effect ED50
# Method: The experiment was carried out by the method of Inagaki et al. (Eur J Pharmacol 1999;367:361-371) with some modifications. Briefly, the back of female ICR strain mice was clipped, and compound 48/80 (3 μg/50 μL/site) was injected intradermally to elicit the response. The number of scratching behavior to the injection site by hind paws, which was observed immediately after the injection, was counted for 30 min. Test compounds, dissolved in sesame oil, were orally administered once. […] the injection of compound 48/80 at pre-determine time when the maximal plasma concentration of the compound was obtained. The inhibitory effect against pruritus was evaluated by comparing the number of scratching in the compound-administered group with that in the vehicle-administered group, and then ED50 value was calculated.
# human CB2R [6] = target: T2, human CB2R; assay: CBR-mediated suppression of forskolin-stimulated cAMP synthesis, CHO cells expressing CB2R; assay type: cell-based; details: 4 μM forskolin, read-out: Inhibition of cAMP synthesis IC50 CB2
# Method: as §1
# [7] = 10 to 30 min after formalin injection, read-out: Inhibitory effect against formalin-induced hyperalgesia (ED50) Second phase
# [8] = first 5 minutes after formalin injection, read-out: Inhibitory effect against formalin-induced hyperalgesia (ED50) First phase
# T2 sequence (P34972 whole entry): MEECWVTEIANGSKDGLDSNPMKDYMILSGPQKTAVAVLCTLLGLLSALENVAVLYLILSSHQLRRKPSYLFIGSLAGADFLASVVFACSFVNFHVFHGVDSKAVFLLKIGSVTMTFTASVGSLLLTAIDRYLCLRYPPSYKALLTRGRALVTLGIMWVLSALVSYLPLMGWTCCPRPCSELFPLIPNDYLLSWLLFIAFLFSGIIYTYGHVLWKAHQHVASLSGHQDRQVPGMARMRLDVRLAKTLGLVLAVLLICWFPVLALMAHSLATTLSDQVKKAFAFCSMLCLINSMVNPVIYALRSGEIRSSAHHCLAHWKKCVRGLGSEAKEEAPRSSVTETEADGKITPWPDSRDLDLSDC
# T1 sequence (P21554 whole entry): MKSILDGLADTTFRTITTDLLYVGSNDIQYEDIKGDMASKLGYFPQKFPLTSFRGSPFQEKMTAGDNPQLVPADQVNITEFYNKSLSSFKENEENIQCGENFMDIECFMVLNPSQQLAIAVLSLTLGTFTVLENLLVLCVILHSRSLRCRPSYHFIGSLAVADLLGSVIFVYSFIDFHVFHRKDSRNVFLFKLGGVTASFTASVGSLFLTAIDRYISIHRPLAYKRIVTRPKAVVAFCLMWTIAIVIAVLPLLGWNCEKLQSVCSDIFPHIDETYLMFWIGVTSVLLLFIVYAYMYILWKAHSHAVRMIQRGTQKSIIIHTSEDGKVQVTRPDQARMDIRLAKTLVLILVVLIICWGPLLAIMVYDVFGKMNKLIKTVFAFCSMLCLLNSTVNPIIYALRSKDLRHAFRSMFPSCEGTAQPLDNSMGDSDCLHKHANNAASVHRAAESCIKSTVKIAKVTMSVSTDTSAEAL
smiles,measurement,setting,value
CSC(=S)N1CC(C(C)C)(C(C)C)CSC1=Nc1ccc(F)c2ccccc12 [Compound I-142],IC50,human CB1R [1],14 nM
same,Ki,human CB2R [2],1.2 nM
same,Ki,human CB1R [3],20 nM
same,melting point,,118 to 119 °C
"CSC(=S)N1CC2(CCCCC2)CSC1=Nc1cccc2ccccc12 [Compound I-23, 3-[(methylthio)thiocarbonyl]-2-(1-naphthylimino)-5,5-pentamethylene-1,3-thiazine]",ED50,[4]; [7],1 mg/kg
same,ED50,[4]; [8],1.5 mg/kg
same,ED50,[5],0.54 mg/kg
same,IC50,human CB1R [1],10.4 nM
same,IC50,human CB2R [6],1.7 nM
same,Ki,human CB2R [2],6 nM
same,Ki,human CB1R [3],29.6 nM
same,melting point,,118 to 119 °C
CSC(=S)N1CC2(CCCCC2)CSC1=Nc1ccc(C#N)c2ccccc12 [Compound I-144],IC50,human CB1R [1],52 nM
same,Ki,human CB2R [2],1 nM
same,Ki,human CB1R [3],54 nM
same,melting point,,164 to 165 °C
CSC(=O)N1CC(C(C)C)(C(C)C)CSC1=Nc1cccc2ccccc12 [Compound I-29],ED50,[4]; [7],3.5 mg/kg
same,ED50,[4]; [8],3.6 mg/kg
same,IC50,human CB1R [1],17.5 nM
same,Ki,human CB2R [2],1.7 nM
same,Ki,human CB1R [3],6 nM
same,melting point,,98 to 99 °C
CCCC1(CCC)CSC(=Nc2cccc3ccccc23)N(C(=O)SC)C1 [Compound I-25],Ki,human CB2R [2],1 nM
same,Ki,human CB1R [3],42.5 nM
same,melting point,,108.5 to 109.5 °C
CSC(=S)N1CC2(CCCCC2)CSC1=Nc1ccc(F)c2ccccc12 [Compound I-140],IC50,human CB1R [1],27 nM
same,Ki,human CB2R [2],0.8 nM
same,Ki,human CB1R [3],59 nM
same,melting point,,139 to 140 °C
CSC(=S)N1CC(C(C)C)(C(C)C)CSC1=Nc1cccc2cc(OCC(=O)OC(C)(C)C)ccc12 [Compound I-77],Ki,human CB2R [2],1.5 nM
same,Ki,human CB1R [3],35 nM
"CSC(=S)N1CC(C(C)C)(C(C)C)CSC1=Nc1ccc(N(C)C)c2ccccc12 [Compound I-43, 3-[(methylthio)thiocarbonyl]-2-(4-dimethylamino-1-naphthylimino)-5,5-diisopropyl-1,3-thiazine]",Ki,human CB2R [2],11.3 nM
same,Ki,human CB1R [3],21.4 nM
CSC(=O)N1CC(C(C)C)(C(C)C)CSC1=Nc1ccc(Cl)c2ccccc12 [Compound I-114],IC50,human CB1R [1],24 nM
same,IC50,human CB2R [6],48 nM
same,Ki,human CB2R [2],5.9 nM
same,Ki,human CB1R [3],25 nM
same,melting point,,111.5 to 112.5 °C
CCCC1(CCC)CSC(=Nc2cccc3ccccc23)N(C(=S)SC)C1 [Compound I-22],Ki,human CB2R [2],1.5 nM
same,Ki,human CB1R [3],20 nM
same,melting point,,139 to 140.5 °C
CSC(=S)N1CC(C(C)C)(C(C)C)CSC1=Nc1ccc(Cl)c2ccccc12 [Compound I-113],IC50,human CB1R [1],13 nM
same,IC50,human CB2R [6],1.5 nM
same,Ki,human CB2R [2],0.9 nM
same,Ki,human CB1R [3],10 nM
same,melting point,,86.5 to 87.5 °C
CSC(=S)N1CC2(CCCCC2)CSC1=Nc1ccc(Cl)c2ccccc12 [Compound I-33],Ki,human CB2R [2],1.2 nM
same,Ki,human CB1R [3],20.7 nM
same,melting point,,181 to 182 °C
CSC(=S)N1CC(C(C)C)(C(C)C)CSC1=Nc1cccc2ccccc12 [Compound I-27],IC50,human CB1R [1],8.1 nM
same,Ki,human CB2R [2],0.3 nM
same,Ki,human CB1R [3],13 nM
same,melting point,,121 to 122 °C
C=CCC1(CC=C)CSC(=Nc2cccc3ccccc23)N(C(=S)SC)C1 [Compound I-28],Ki,human CB2R [2],4.8 nM
same,Ki,human CB1R [3],31.4 nM
CSC(=O)N1CC(C(C)C)(C(C)C)CSC1=Nc1ccc(F)c2ccccc12 [Compound I-143],IC50,human CB1R [1],35 nM
same,Ki,human CB2R [2],1.4 nM
same,Ki,human CB1R [3],29 nM
same,melting point,,109 to 110 °C
